Assays:
Type in all cases: functional, cell membranes, Plasma membrane vesicle
[1] = molecular target: T1, ATP-binding cassette sub-family C member 2 (ABCC2) (Rattus norvegicus, UniProt Q63120); assay: TP_TRANSPORTER: inhibition of LTC4 uptake (LTC4: 0.01 uM, Vincristine: 100 uM) in liver plasma membrane vesicles of Wistar rat; parameters: scale not given: the % may be the effect or the level left; conditions: probe LTC4 (0.01 uM), read-out: Activity
[2] = molecular target: T1, ATP-binding cassette sub-family C member 2 (ABCC2); assay: TP_TRANSPORTER: inhibition of LTC4 uptake (LTC4: 0.01 uM, Vinblastine: 100 uM) in liver plasma membrane vesicles of Wistar rat; parameters: scale not given: the % may be the effect or the level left; conditions: probe LTC4 (0.01 uM), read-out: Activity
[3] = molecular target: ATP-binding cassette sub-family C member 2 (Rattus norvegicus, UniProt Q63120); assay: (§1) TP_TRANSPORTER: uptake in liver plasma membrane vesicles of Wistar rat
[4] = substrate: CCCCC/C=C\C\C=C/C=C/C=C/[C@@H](SC[C@H](NC(C)=O)C(=O)O)[C@@H](O)CCCC(=O)O; assay: as §1
[5] = substrate: CCCCC/C=C\C\C=C/C=C/C=C/[C@@H](SC[C@H](N)C(=O)NCC(=O)O)[C@@H](O)CCCC(=O)O; assay: as §1
[6] = substrate: CCCCC/C=C\C\C=C/C=C/C=C/[C@@H](SC[C@@H](NC(=O)CC[C@H](N)C(=O)O)C(=O)NCC(=O)O)[C@@H](O)CCCC(=O)O; assay: as §1

CC[C@]1(O)C[C@H]2CN(CCc3c([nH]c4ccccc34)[C@@](C(=O)OC)(c3cc4c(cc3OC)N(C=O)[C@H]3[C@@](O)(C(=O)OC)[C@H](OC(C)=O)[C@]5(CC)C=CCN6CC[C@]43[C@@H]65)C2)C1 [VINCRISTINE]
activity at 100 µM [1]: 42%

CC[C@]1(O)C[C@@H]2CN(CCc3c([nH]c4ccccc34)[C@@](C(=O)OC)(c3cc4c(cc3OC)N(C)[C@H]3[C@@](O)(C(=O)OC)[C@H](OC(C)=O)[C@]5(CC)C=CCN6CC[C@]43[C@@H]65)C2)C1 [VINBLASTINE]
activity at 100 µM [2]: 29%

CCCCC/C=C\C\C=C/C=C/C=C/[C@@H](SC[C@H](N)C(=O)O)[C@@H](O)CCCC(=O)O [LEUKOTRIEN E4]
Activity [3]: substrate [+]

B1: ATP-binding cassette sub-family C member 2 (Rattus norvegicus) (protein)
chain: MDKFCNSTFWDLSLLESPEADLPLCFEQTVLVWIPLGFLWLLAPWQLYSVYRSRTKRSSITKFYLAKQVFVVFLLILAAIDLSLALTEDTGQATVPPVRYTNPILYLCTWLLVLAVQHSRQWCVRKNSWFLSLFWILSVLCGVFQFQTLIRALLKDSKSNMAYSYLFFVSYGFQIVLLILTAFSGPSDSTQTPSVTASFLSSITFSWYDRTVLKGYKHPLTLEDVWDIDEGFKTRSVTSKFEAAMTKDLQKARQAFQRRLQKSQRKPEATLHGLNKKQSQSQDVLVLEEAKKKSEKTTKDYPKSWLIKSLFKTFHVVILKSFILKLIHDLLVFLNPQLLKLLIGFVKSSNSYVWFGYICAILMFAVTLIQSFCLQSYFQHCFVLGMCVRTTVMSSIYKKALTLSNLARKQYTIGETVNLMSVDSQKLMDATNYMQLVWSSVIQITLSIFFLWRELGPSILAGVGVMVLLIPVNGVLATKIRNIQVQNMKNKDKRLKIMNEILSGIKILKYFAWEPSFQEQVQGIRKKELKNLLRFGQLQSLLIFILQITPILVSVVTFSVYVLVDSANVLNAEKAFTSITLFNILRFPLSMLPMVTSSILQASVSVDRLERYLGGDDLDTSAIRRVSNFDKAVKFSEASFTWDPDLEATIQDVNLDIKPGQLVAVVGTVGSGKSSLVSAMLGEMENVHGHITIQGSTAYVPQQSWIQNGTIKDNILFGSEYNEKKYQQVLKACALLPDLEILPGGDMAEIGEKGINLSGGQKQRVSLARAAYQDADIYILDDPLSAVDAHVGKHIFNKVVGPNGLLAGKTRIFVTHGIHFLPQVDEIVVLGKGTILEKGSYRDLLDKKGVFARNWKTFMKHSGPEGEATVNNDSEAEDDDDGLIPTMEEIPEDAASLAMRRENSLRRTLSRSSRSSSRRGKSLKNSLKIKNVNVLKEKEKEVEGQKLIKKEFVETGKVKFSIYLKYLQAVGWWSILFIILFYGLNNVAFIGSNLWLSAWTSDSDNLNGTNNSSSHRDMRIGVFGALGLAQGICLLISTLWSIYACRNASKALHGQLLTNILRAPMRFFDTTPTGRIVNRFSGDISTVDDLLPQTLRSWMMCFFGIAGTLVMICMATPVFAIIIIPLSILYISVQVFYVATSRQLRRLDSVTKSPIYSHFSETVTGLPIIRAFEHQQRFLAWNEKQIDINQKCVFSWITSNRWLAIRLELVGNLVVFCSALLLVIYRKTLTGDVVGFVLSNALNITQTLNWLVRMTSEAETNIVAVERISEYINVENEAPWVTDKRPPADWPRHGEIQFNNYQVRYRPELDLVLKGITCNIKSGEKVGVVGRTGAGKSSLTNCLFRILESAGGQIIIDGIDVASIGLHDLRERLTIIPQDPILFSGSLRMNLDPFNKYSDEEVWRALELAHLRSFVSGLQLGLLSEVTEGGDNLSIGQRQLLCLGRAVLRKSKILVLDEATAAVDLETDSLIQTTIRKEFSQCTVITIAHRLHTIMDSDKIMVLDNGKIVEYGSPEELLSNRGSFYLMAKEAGIENVNHTEL
Km [4]: 5.2 µM | Km [5]: 1.5 µM | Km [6]: 0.25 µM

Reference: ChEMBL document CHEMBL2074429, “ATP-dependent primary active transport of cysteinyl leukotrienes across liver canalicular membrane. Role of the ATP-dependent transport system for glutathione S-conjugates” (J Biol Chem, 1990)
